The results in this text go back to patent publication US6974794B1, “Hemoglobin-antioxidant conjugates” (Hemosol LP, priority 1999, dated 2005).

Series [1] has as its system erythrocytes. The experiment in a line: Hemolysis of erythrocytes mediated by peroxyl radicals (AAPH); protection of RBCs against lysis. The series is classed as cell-based. The conditions noted are these: for AUC, % of control: relative to the corresponding control without Trolox, CO-ligated. How it is done:
Blood was collected into heparinized tubes and erythrocytes were separated by centrifugation and washed 3 times with 10 volumes of PBS, pH 7.4. During the last washing, erythrocytes were centrifuged at 1000×g for 10 minutes to obtain a consistently packed cell preparation. The assay for hemolysis mediated by peroxyl radicals was conducted by a modified method of Miki et al.,(M. Miki, H. Tamai, M. Mino, Y. Yamamoto and E. Niki., Arch. Biochem. Biophys. 258:373-380 (1987)). Equal volumes of a 30% suspension of fresh erythrocytes in PBS pH 7.4, test sample, and 300 mM 2,2;-azo-bis(2-amidinopropane dihydrochloride) (AAPH, a radical generator) were combined in order. Mixtures were prepared under CO gas and test hemoglobin concentration in the RBC assay suspension was 12-13 mg/ml. Mixtures were held at 37° C., and aliquots were diluted 20-fold in PBS and centrifuged at 1000×g for 10 minutes. As a measure of Hb released due to RBC lysis, the absorbances of supernatants were measured at 540 nm after conversion of all Hb to CN-metHb according to the method of Tentori (Meth. Enzymology 75:707 (1981)). Supernatant Hb levels were corrected for Hb added in the test samples.
The results for two products are presented graphically in FIG. 1, a plot of relative RBC lysis against time for the various products. Products analyzed were prepared as described for reaction #6 (Hb-Trolox B) and reaction #7 (Hb-Trolox A) in Table 1 of Example 1. […] Relative protection was also determined by comparison of areas under the curves (AUC) obtained by plotting RBC lysate absorbance versus time. AUC is determined by the time of onset, rate, and overall extend of RBC lysis. Lower AUC values indicate greater protection of RBCs against lysis.
Using the method described in Example 2, the anti-oxidant activities of the two conjugates were measured. Samples were CO-ligated and concentration of the conjugates and controls in the RBC assay suspension was 12 mg/mL.
Using the method described in Example 1, the anti-oxidant activity of the polyOR-Hb-TX was measured. Products tested included oxygen and CO-ligated polyOR-Hb (no treatment with TX or EDC), CO-ligated product reserved prior to oxygenation as described above, and oxygenated product. All products were present in the RBC lysis assay suspension at 11.7 mg/mL.
Using the method described in Example 1, the antioxidant activities of the polyOR-Hb-TX products prepared under deoxy conditions (Example 8) and CO conditions (Example 6) were measured. Samples were CO-ligated and concentration of the conjugates and controls in the RBC assay suspension was 12 mg/mL. An equal concentration of polyOR-Hb, as well as two concentrations of Trolox alone representing 1× and 0.5× its solubility limit in the test solution, were evaluated.

Series [2] concerns conscious rat. Kind of series: Hemodynamic effect following 10% topload infusion in conscious rat. It is filed as in vivo. The conditions noted are these: for Pre-infusion HR / baseline MAP prior to infusion: conscious Sprague-Dawley rat, before infusion; for baseline MAP prior to infusion: four animals per group; for HR after infusion / MAP following infusion: 10% topload infusion of 7.7 g/dL solution in lactated Ringer's. On the procedure:
Male Sprague-Dawley rats (250-350 g) were anesthetized with isoflurane on the day of the experiment. The right femoral artery and vein were cannulated. After 1.5 hour recovery from surgery, conscious animals residing in a metabolic cages were infused with either of two solutions: oxygenated polyOR-TX prepared in Example 6 or polyOR-Hb (no TX-EDC treatment; both solutions were 7.7 g/dL in lactated Ringer's solution). Infusion volume was equal to 10% of the animal's estimated blood volume. Mean arterial blood pressure (MAP) and heart rate (HR) were recorded 30 minutes prior to infusion to establish baseline values, during infusion and for 2 hours following infusion (FIGS. 3 and 4). Four animals were tested in each of the two groups. The baseline MAP prior to infusion was 101±4 mm Hg (polyOR-Hb) and 110±3 mm Hg (polyOR-Hb-TX). […] Pre-infusion HR were 407±17 and 394±17 beats per minute (bpm) in the polyOR-Hb and polyOR-Hb-TX groups, respectively.

Series [3] is described as follows: P50 measured with a Hemox-Analyzer. Conditions: 37° C. On the procedure:
Trolox was conjugated to polyOR-Hb under deoxy conditions to prepare a product with a high P50, more suitable for use as an HBOC. PolyOR-Hb and MES buffer were deoxygenated by standard means. 0.78 g Trolox was reacted with 0.60 g EDC in 4 mL of acetonitrile for 10-20 minutes at room temperature. This solution was added to 2.04 g polyOR-Hb in 200 mL 120 mM MES pH 7.0. Two identical additions were made after 4 and 21 hours. At 27 hours following the first addition, the reaction mixture was charged with CO gas, filtered, concentrated and dialyzed extensively against PBS.

The mark [4] stands for this setting: Table 7, CO-ligated samples, 12 mg/mL in RBC assay suspension.
The mark [5] stands for this setting: Table 4, hemoglobin 0.20 mM (12-13 mg/ml) in RBC assay suspension, under CO, 37° C., bound Trolox 0.32 mM (A), 0.45 mM (B), lower AUC = greater protection.
The mark [6] stands for this setting: Table 8, 11.7 mg/mL in RBC lysis assay suspension.

For the compound “1× Control: control product: polyOR-Hb reacted with EDC alone, no Trolox added, single addition”, the “AUC relative to AAPH control (%)” value in series [1] (setting [4]) is 83%.
Take “1× TX-EDC (Reaction A): polyOR-Hb conjugated with Trolox by a single addition of Trolox/EDC”: in series [1] (setting [4]), the “AUC relative to AAPH control (%)” value was found to be 27%. In series [1] (12 mg/mL), the “AUC, % of control” value is recorded as 33%.
In the case of “3× Control: control product: polyOR-Hb reacted with EDC alone, no Trolox added, three additions”, the “AUC relative to AAPH control (%)” value in series [1] (setting [4]) came to 69%.
On to “3× TX-EDC (Reaction B): polyOR-Hb conjugated with Trolox by three additions of Trolox/EDC”, for which, in series [1] (12 mg/mL), the “AUC, % of control” value is given as 3%.
Consider `Cc1c(C)c2c(c(C)c1O)CCC(C)(C(=O)O)O2` (centres unmarked) [Free Trolox, 2,5,7,8-tetramethyl-2-carboxy-chroman-6-ol], for which the “AUC relative to AAPH control (%)” value in series [1] (Table 4, Trolox 0.50 mM, no hemoglobin) is listed as 88%; in series [1] (Table 9, Trolox alone 0.26 mM (0.5× its solubility limit)) it was 87%; in series [1] (Table 9, Trolox alone 0.52 mM (1× its solubility limit)), 70%.
As to “Free Hb (A): free (control) hemoglobin; product of the control reaction corresponding to Hb-Trolox A, no TX-EDC added”, in series [1] (setting [5]), the “AUC relative to AAPH control (%)” value is reported as 39%.
Regarding “Free Hb (B): free (control) hemoglobin; product of the control reaction corresponding to Hb-Trolox B, no TX-EDC added”, the “AUC relative to AAPH control (%)” value in series [1] (setting [5]) was 35%.
Take “PolyOR-Hb (CO form): CO-ligated polyOR-Hb, no treatment with TX or EDC”: in series [1] (setting [6]), the “AUC relative to AAPH control (%)” value came out at 47%.
In the case of “PolyOR-Hb (Oxy form): oxygen-ligated polyOR-Hb, no treatment with TX or EDC”, in series [1] (setting [6]), the “AUC relative to AAPH control (%)” value worked out at 39%.
On to “PolyOR-Hb-TX (CO form): CO-ligated product of Example 6 reserved prior to oxygenation”, for which the “AUC relative to AAPH control (%)” value in series [1] (setting [6]) was determined as 6%.
Consider “PolyOR-Hb-TX (Oxy form): oxygenated product of Example 6”, for which, in series [1] (setting [6]), the “AUC relative to AAPH control (%)” value came to 15%.
Turning to “PolyOR-Hb-TX (from Example 6): Trolox conjugate of o-raffinose polymerized hemoglobin, large scale, prepared under CO conditions”, in series [1] (Table 9, CO form, 12 mg/mL), the “AUC relative to AAPH control (%)” value came to 0%. Moreover, in series [2], the “Pre-infusion HR” value worked out at 394±17 bpm and the “baseline MAP prior to infusion” value is reported as 110±3 mm Hg. In series [2] (conscious rat), this compound had an HR after infusion of 316±10 bpm and an MAP following infusion of 151±1 mm Hg. Also, in series [2] (conscious rat, 10% topload infusion, result in words), the “Hemodynamic properties compared with polyOR-Hb” value is “did not alter the hemodynamic properties”. This compound returned a P50 in series [3] of 16 mm Hg.
Regarding “PolyOR-Hb-TX (from Example 8): Trolox conjugated to polyOR-Hb under deoxy conditions”, in series [1] (Table 9, CO form, 12 mg/mL), the “AUC relative to AAPH control (%)” value turned out to be 3%. This compound also gave a P50 in series [3] of 40 mm Hg.
On to “PolyOR-Hb: o-raffinose cross-linked / polymerized hemoglobin, no treatment with TX or EDC [reference compound]”, for which, in series [1] (Table 9, CO form, 12 mg/mL), the “AUC relative to AAPH control (%)” value is 28%. Further, in series [2], the “Pre-infusion HR” value amounted to 407±17 bpm and the “baseline MAP prior to infusion” value came to 101±4 mm Hg. In series [2] (conscious rat), the HR after infusion is listed as 345±16 bpm and the MAP following infusion worked out at 142±7 mm Hg. The P50 in series [3] is reported as 41 mm Hg.
